Some test systems named below: CCRF-CEM leukemia; COLO 205 colon; HCC-2998 colon; HOP-62 NSCLC; MALME-3M melanoma; NCI-H226 lung; NCI-H522 lung; RXF 393 renal; SK-MEL-2 melanoma; SR leukemia.
Common to all, as to experiment: NCI anticancer screen, dose series, 48 h

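Briefly, cells in 96-well plates were exposed to five compound concentrations for 48 h, and endpoints were estimated by linear interpolation. GI50 is the concentration that inhibits growth by half. TGI denotes the concentration required for complete inhibition of growth.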 Some results are limits rather than exact numbers.

Consider `COc1ccc(-c2ccc(C3CC(c4ccc(Cl)cc4)=NN3)o2)c([N+](=O)[O-])c1` (stereo not given), for which the GI50 in the assay on CCRF-CEM leukemia, with COLO 205 colon, in the assay with HCC-2998 colon, in the assay with HOP-62 NSCLC, in the assay on MALME-3M melanoma and with NCI-H226 lung was greater than 100 µM each time. Besides, the GI50 with NCI-H522 lung, in the assay on RXF 393 renal, with SK-MEL-2 melanoma and with SR leukemia was greater than 100 µM each time. Also, the TGI with CCRF-CEM leukemia, in the assay with COLO 205 colon, with HCC-2998 colon, in the assay on HOP-62 NSCLC, with MALME-3M melanoma and in the assay with NCI-H226 lung was greater than 100 µM in each case. For the same molecule, the TGI in the assay with NCI-H522 lung, in the assay on RXF 393 renal, in the assay with SK-MEL-2 melanoma and in the assay on SR leukemia was greater than 100 µM throughout.
Regarding `CS(=O)(=O)Nc1ccc(Nc2c3ccccc3nc3ccccc23)cc1`, the TGI in the assay on CCRF-CEM leukemia was 26.4 µM; with COLO 205 colon, 21 µM; with HCC-2998 colon, 27 µM; with HOP-62 NSCLC it was 13 µM; with MALME-3M melanoma it was 12.2 µM; with NCI-H226 lung, 7.14 µM. The TGI with NCI-H522 lung stood at 13.7 µM; with RXF 393 renal it was 23.3 µM; in the assay with SK-MEL-2 melanoma, 16.1 µM; in the assay with SR leukemia it was 3.83 µM.
As to `COC(=O)C1=C(C(=O)OC)C23C=C(C)C1C2=C(C)C1(CC1)[C@@](C)(O)C3=O` (stereo not given in full), the GI50 in the assay with CCRF-CEM leukemia is 4.8 µM; in the assay on COLO 205 colon it was 0.35 µM; in the assay on HCC-2998 colon it was 0.245 µM; in the assay with HOP-62 NSCLC, 0.267 µM; with MALME-3M melanoma, 0.449 µM; with NCI-H226 lung it was 0.438 µM. In addition, the GI50 was 0.495 µM with NCI-H522 lung, 0.179 µM with RXF 393 renal, 0.25 µM with SK-MEL-2 melanoma and 3.64 µM in the assay on SR leukemia. The TGI was greater than 100 µM in the assay on CCRF-CEM leukemia; 1.62 µM in the assay with COLO 205 colon; 0.693 µM in the assay with HCC-2998 colon; 0.754 µM in the assay with HOP-62 NSCLC; 2.16 µM with MALME-3M melanoma; 3.07 µM in the assay with NCI-H226 lung. In addition, the TGI is 5.75 µM in the assay on NCI-H522 lung, 0.341 µM in the assay on RXF 393 renal, 0.63 µM in the assay on SK-MEL-2 melanoma and greater than 100 µM in the assay on SR leukemia.
Regarding `COc1ccc(-c2nc(-c3nc4ccc(OC)cc4[nH]3)cc3c2[nH]c2ccccc23)cc1`, the GI50 in the assay on CCRF-CEM leukemia was 0.887 µM; in the assay with COLO 205 colon, 6.76 µM; with HCC-2998 colon, 6.57 µM; with HOP-62 NSCLC, 4.24 µM; with MALME-3M melanoma, 27.5 µM; with NCI-H226 lung, 4.37 µM. The GI50 is 2.7 µM with NCI-H522 lung, 2.77 µM in the assay with RXF 393 renal, 3.31 µM with SK-MEL-2 melanoma and 4.29 µM in the assay on SR leukemia. Also, the TGI with CCRF-CEM leukemia, in the assay on COLO 205 colon, in the assay on HCC-2998 colon, with HOP-62 NSCLC, in the assay with MALME-3M melanoma and in the assay on NCI-H226 lung was greater than 100 µM throughout. Moreover, the TGI in the assay on NCI-H522 lung was greater than 100 µM; with RXF 393 renal, greater than 100 µM; with SK-MEL-2 melanoma, 49.2 µM; with SR leukemia it was greater than 100 µM.
With `CN(C)CCCc1c[nH]c2ccccc12`, the TGI in the assay with CCRF-CEM leukemia, in the assay on COLO 205 colon, in the assay with HCC-2998 colon, in the assay with HOP-62 NSCLC, in the assay on MALME-3M melanoma and in the assay on NCI-H226 lung was greater than 100 µM each time. The TGI in the assay with NCI-H522 lung, with RXF 393 renal, with SK-MEL-2 melanoma and with SR leukemia was greater than 100 µM in each case.
On to `NS(=O)(=O)c1ccc(CCN=C=S)cc1`, for which the GI50 in the assay on CCRF-CEM leukemia is 2.65 µM; with COLO 205 colon it was 2.15 µM; with HCC-2998 colon it was 1.88 µM; in the assay with HOP-62 NSCLC it was 3.23 µM; in the assay on MALME-3M melanoma, 2.22 µM; in the assay on NCI-H226 lung, 2.84 µM. In addition, the GI50 is 1.37 µM in the assay on NCI-H522 lung, 1.62 µM with RXF 393 renal, 2.3 µM in the assay on SK-MEL-2 melanoma and 2.44 µM with SR leukemia. The TGI was 7.45 µM in the assay on CCRF-CEM leukemia; 4.52 µM in the assay on COLO 205 colon; 3.55 µM in the assay on HCC-2998 colon; 10.1 µM with HOP-62 NSCLC; 5.35 µM in the assay with MALME-3M melanoma; 8.52 µM in the assay on NCI-H226 lung. Further, the TGI in the assay on NCI-H522 lung was 3.57 µM; in the assay on RXF 393 renal, 3.18 µM; in the assay with SK-MEL-2 melanoma, 5.84 µM; in the assay on SR leukemia, greater than 100 µM.
With `CCOC(=O)c1c(C(F)(F)F)n([O-])c2ccc(OC)cc2[n+]1=O`, the GI50 in the assay on CCRF-CEM leukemia was 4.3 µM; in the assay with COLO 205 colon, 4.13 µM; with HCC-2998 colon it was 4.77 µM; with HOP-62 NSCLC it was 3.89 µM; in the assay with MALME-3M melanoma, 2.83 µM; in the assay with NCI-H226 lung, 4.07 µM. For the same molecule, the GI50 was 6.52 µM in the assay on NCI-H522 lung, 23.8 µM with RXF 393 renal, 19.2 µM with SK-MEL-2 melanoma and 2.37 µM in the assay with SR leukemia. In addition, the TGI with CCRF-CEM leukemia came out at 41.7 µM; with COLO 205 colon it was 16.2 µM; with HCC-2998 colon, 35.1 µM; in the assay with HOP-62 NSCLC, 21.9 µM; in the assay with MALME-3M melanoma, 30.9 µM; in the assay on NCI-H226 lung, 36 µM. Besides, the TGI in the assay on NCI-H522 lung is 31 µM; in the assay on RXF 393 renal it was greater than 100 µM; in the assay with SK-MEL-2 melanoma, 54.4 µM; with SR leukemia it was 6.74 µM.
Turning to `CCCCCCCC[N+](C)(CCCCCCCC)CCCCCCCC`, the GI50 in the assay with CCRF-CEM leukemia was 0.189 µM; in the assay with COLO 205 colon, 0.169 µM; in the assay with HCC-2998 colon it was 0.305 µM; with HOP-62 NSCLC, 0.473 µM; in the assay with MALME-3M melanoma, 0.224 µM; in the assay with NCI-H226 lung, 0.406 µM. Further, the GI50 in the assay on NCI-H522 lung is 0.223 µM; in the assay with RXF 393 renal, 0.39 µM; in the assay with SK-MEL-2 melanoma it was 0.356 µM; with SR leukemia it was 0.165 µM. In addition, the TGI with CCRF-CEM leukemia came out at 0.525 µM; in the assay with COLO 205 colon it was 0.361 µM; in the assay on HCC-2998 colon, 1.17 µM; with HOP-62 NSCLC, 1.61 µM; with MALME-3M melanoma it was 0.713 µM; in the assay on NCI-H226 lung it was 1.49 µM. For the same molecule, the TGI came out at 0.746 µM in the assay with NCI-H522 lung, 1.49 µM in the assay with RXF 393 renal, 8.81 µM with SK-MEL-2 melanoma and 0.408 µM in the assay with SR leukemia.

The values above are taken from PubChem BioAssay (NCI).
